Patent publication US20090053741A1 (priority 2005, published 2009)
Each block holds one molecule with its values, some of them ahead of it.

What was measured:
DDAH = experiment: ADMA binding to DDAH (initial studies; equilibrium dialysis and calorimetry)
Description: Secondly, the researchers tried to improve the binding of ADMA to DDAH through mutagenesis. Three more mutations were generated in E114 and around this residue. These were E114D, E114D+A115G, L18H (residue in the loop) and P80A. […] Other mutations around the active site were also generated: L161F, G116A, G116V and G116T.
Thirdly, the researchers tried to calculate a Kd for ADMA of DDAH using nuclear magnetic resonance imaging using the C249S or H162A mutant. […] Fourthly, the researchers tried a fluorophore (fluoresceine 5 maleimide or acrylodan) approach to measure the Kd for ADMA. […] Finally, the researchers generated four mutations with tryptophan: V15W and D16W (in the loop) as well as F58W and E90W (close to the active site). These four residues move in the NMR spectrum when inhibitors bind to the protein.

nitric oxide synthase = details: cited from earlier work; for inhibition of NOS (in words): background statement
iNOS = molecular target: T1, iNOS (Mus musculus, UniProt P29477); experiment: [14C]L-NMMA binding to lysates of cytokine-stimulated J774 cells (iNOS lysate), filter assay; details: excess 1000-fold L-NMMA, FIG. 1, preliminary
T1 sequence (P29477 1-1144): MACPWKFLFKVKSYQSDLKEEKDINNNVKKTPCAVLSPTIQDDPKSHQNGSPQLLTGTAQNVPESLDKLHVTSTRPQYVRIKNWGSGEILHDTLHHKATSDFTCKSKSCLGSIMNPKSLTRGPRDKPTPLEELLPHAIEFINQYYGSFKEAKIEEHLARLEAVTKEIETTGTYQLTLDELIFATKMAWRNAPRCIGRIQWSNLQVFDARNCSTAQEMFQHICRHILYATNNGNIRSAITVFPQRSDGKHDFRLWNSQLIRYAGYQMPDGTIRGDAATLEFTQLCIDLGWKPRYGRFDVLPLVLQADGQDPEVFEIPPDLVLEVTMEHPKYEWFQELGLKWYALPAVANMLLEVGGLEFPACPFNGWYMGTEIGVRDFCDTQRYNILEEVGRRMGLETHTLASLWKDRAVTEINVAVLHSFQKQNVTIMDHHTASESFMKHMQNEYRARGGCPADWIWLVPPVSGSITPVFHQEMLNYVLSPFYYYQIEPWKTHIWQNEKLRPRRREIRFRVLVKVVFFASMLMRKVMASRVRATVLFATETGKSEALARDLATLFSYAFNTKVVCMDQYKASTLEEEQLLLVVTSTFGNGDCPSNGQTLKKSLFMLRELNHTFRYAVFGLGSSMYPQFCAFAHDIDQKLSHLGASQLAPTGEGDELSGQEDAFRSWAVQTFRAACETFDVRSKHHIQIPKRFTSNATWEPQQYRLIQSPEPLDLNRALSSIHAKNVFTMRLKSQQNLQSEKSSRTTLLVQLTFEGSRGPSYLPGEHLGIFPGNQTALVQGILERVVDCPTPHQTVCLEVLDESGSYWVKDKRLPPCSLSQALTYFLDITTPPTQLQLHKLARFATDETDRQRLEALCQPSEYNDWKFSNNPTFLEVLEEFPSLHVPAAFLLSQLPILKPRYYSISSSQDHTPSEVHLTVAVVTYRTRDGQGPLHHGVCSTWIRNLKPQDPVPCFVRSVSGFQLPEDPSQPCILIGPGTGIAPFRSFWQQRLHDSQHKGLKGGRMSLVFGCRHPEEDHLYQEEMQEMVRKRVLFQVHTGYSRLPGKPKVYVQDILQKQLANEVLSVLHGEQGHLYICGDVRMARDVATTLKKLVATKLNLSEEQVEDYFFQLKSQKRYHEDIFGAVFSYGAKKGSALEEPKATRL
Description: A=J774 stimulated, B=J774 stimulated+L-NMMA, C=control and D=control+L-NMMA.
Macrophages (J774 cells) were stimulated with a cytokine cocktail (LPS/IFN/TNF) for 24 h, to induce iNOS expression, and cell lysates were collected. […] Low molecular weight molecules were removed from lysates using 30000 MW cut-off filters. Lysates were incubated on 3000 MW filters with [^14C]L-NMMA for 15 min ([…] L-NMMA), washed 3× with cold TRIS buffer and filters counted.

[1] = molecular target: T2, bsNOS fragment (bacillus subtilis nitric oxide synthase oxygenase domain) (Bacillus subtilis, UniProt O34453); experiment: [14C]L-NMMA binding to bsNOS fragment on 30000 MW cut off filters; details: 1000-fold excess unlabelled L-NMMA, FIG. 2, preliminary
T2 construct: made in house
Description: (§1) A=Control and B=excess L-NMMA.
A bacillus subtilis nitric oxide synthase oxygenase domain (“fragment”) was PCR amplified from genomic DNA with Nde1 and BamH1 sites added at the 5′ and 3′ ends respectively and cloned into pET15b vector. The bsNOS fragment corresponded to SEQ ID NO: 2 and was purified as previously described (Pant et al., Biochemistry; 2002; 41:11071-11079).
[^14C]L-NMMA (3.75 nmol) was incubated with the bsNOS fragment ([…]) on 30000 MW cut off filters in the presence and absence (Control) of 1000-fold excess unlabelled L-NMMA.

[2] = molecular target: T2, bsNOS fragment (bacillus subtilis nitric oxide synthase oxygenase domain); experiment: bsNOS binding to [14C]L-NMMA, PVDF filters with rapid washes; details: L-NMMA 1 mM, FIG. 3
Description: as §1
A modified method previously described for binding [3H]nitroarginine to mammalian NOS was used to ensure rapid washes of the bsNOS fragment complexes and ligand to reduce time for dissociation (Liu Q and Gross S S, Methods Enzymol. 1996; 268:311-24). [^14C]L-NMMA ([…] −20000 counts total) was incubated with the bsNOS fragment ([…]) in assay buffer containing: 50 mM Tris pH 7.6; 50 uM BH4, 0.5 mM DTT. Reactants were incubated for 15 min at room temperature and NOS-bound [^14C]L-NMMA was separated from free [^14C]L-NMMA using PVDF filters and 3×1 ml rapid washes in cold Tris pH 7.6. Background was determined by the addition of 1 mM L-NMMA to bsNOS in assay buffer. Filters were added to 5 ml scintillation cocktail and counted in scintillation counter (Beckmann).

T2 sequence (O34453 other isoform, or with tags, fused parts or gaps with the stated changes): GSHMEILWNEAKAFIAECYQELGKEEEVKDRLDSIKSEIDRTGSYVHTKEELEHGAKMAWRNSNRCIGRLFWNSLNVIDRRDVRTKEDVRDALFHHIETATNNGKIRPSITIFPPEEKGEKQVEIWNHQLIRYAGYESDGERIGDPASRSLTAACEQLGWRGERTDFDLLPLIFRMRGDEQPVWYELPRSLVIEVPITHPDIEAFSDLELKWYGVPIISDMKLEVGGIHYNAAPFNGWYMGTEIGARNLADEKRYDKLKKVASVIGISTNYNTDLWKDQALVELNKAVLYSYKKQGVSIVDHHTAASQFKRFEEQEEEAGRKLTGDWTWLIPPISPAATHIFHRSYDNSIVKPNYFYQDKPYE

- saturation of DDAH in calorimetry experiments (DDAH; inactive mutations C249S, H162A, E114Q, very high concentrations of ADMA (10 mM)): saturation was never reached
- concentrations necessary to get binding to DDAH (DDAH; initial studies): millimolar concentrations
SMILES: CN(C)C(=N)NCCCC(N)C(=O)O (stereo not drawn) [ADMA, asymmetric dimethylarginine]
- inhibition of NOS (in words) (nitric oxide synthase): equipotent

SMILES: CNC(=N)NCCC[C@H](N)C(=O)O [L-NMMA, N^G-monomethyl-L-arginine]
- competition of [14C]L-NMMA binding by unlabelled ligand (iNOS): competed out
- competition of [14C]L-NMMA binding by unlabelled ligand [1]: competed out
- [14C]L-NMMA binding in the presence of unlabelled ligand [2]: reduced to background
- inhibition of NOS (in words) (nitric oxide synthase): equipotent

SMILES: N=C(N)NCCC[C@H](N)C(=O)O [arginine]
- Km (nitric oxide synthase; nitric oxide synthase, the 3 enzymes, read-out: Km for arginine): 7 to 19 µM

SMILES: CN=C(NC)NCCC[C@H](N)C(=O)O [SDMA, symmetric dimethylarginine]
- inhibition of NOS (in words) (nitric oxide synthase): does not inhibit NOS
